Structures can show the parent of a compound that is named as a salt.
Experiments:
human VR1 receptors = target: T1, human VR1 receptors (Homo sapiens, UniProt Q8NER1); experiment: Human VR1 antagonist assay (Ca2+ imaging); type: cell-based; conditions: cells expressing human VR1, fura-2 Ca2+ imaging, FDSS 6000; capsaicin (300 nM) or acid (pH5.8) stimulation, table does not say which
T1 construct: host or cells: cells highly expressing human VR1; cell type not specified
Description: Human VR1 Antagonist Assay
VR1 antagonistic activity can be determined by the Ca^2+ imaging assay using human VR1 highly expressing cells. The cells that highly express human VR1 receptors are obtainable from several different conventional methods. The one standard method is cloning from human Dorsal Root Ganglion (DRG) or kidney according to the methods such as described in the journal article; Nature, 389, pp 816-824, 1997. Alternatively VR1 receptors highly expressing human keratinocytes are also known and published in the journal article (Biochemical and Biophysical Research Communications, 291, pp 124-129, 2002). […] Further more, the method to up regulate human VR1 gene, which is usually a silent gene or don't produce detectable level of VR1 receptors, is also available to obtain propriety cells. Such genetic modification method was described in detail; Nat. Biotechnol., 19, pp 440-445, 2001.
The cells that express human VR1 receptors were maintained in culture flask at 37° C. in an environment containing 5% CO2 until use in the assay. The intracellular Ca^2+ imaging assay to determine VR1 antagonistic activities were done by following procedures.
The culture medium was removed from the flask and fura-2/AM fluorescent calcium indicator was added to the flask at a concentration of 5 μM in the medium. The flask was placed in CO2 incubator and incubated for 1 hour. Then the cells expressing the human VR1 receptors were detached from the flask follow by washing with phosphate buffer saline, PBS(−) and re-suspended in assay buffer. The 80 μl of aliquot of cell suspension (3.75×10^5 cells/ml) was added to the assay plate and the cells were spun down by centrifuge (950 rpm, 20° C., 3 minutes).
Capsaicin Stimulation Assay:
The capsaicin-induced changes in the intracellular calcium concentration were monitored using FDSS 6000 (Hamamatsu Photonics, Japan), a fluorometric imaging system. The cell suspension in Krebs-Ringer HEPES (KRH) buffer (115 mM NaCl, 5.4 mM KCl, 1 mM MgSO4, 1.8 mM CaCl2, 11 mM D-Glucose, 25 mM HEPES, 0.96 mM Na2HPO4, pH 7.3) were pre-incubated with varying concentrations of the test compounds or KRH buffer (buffer control) for 15 minutes at room temperature under the dark condition. Then capsaicin solution, which gives 300 nM in assay mixture, was automatically added to the assay plate by the FDSS 6000.
The Acid-induced changes in the intracellular calcium concentration were monitored using FDSS 6000 (Hamamatsu Photonics, Japan), a fluorometric imaging system. The cell suspension in resting buffer (HBSS supplemented with 10 mM HEPES, pH 7.4) were pre-incubated with varying concentrations of the test compounds or resting buffer (buffer control) for 15 minutes at room temperature under the dark condition. The cells were automatically added the stimulating solution (HBSS supplemented with MES, final assay buffer pH5.8) by the FDSS 6000.
Determination of Antagonist Activity
The monitoring of the changes in the fluorescence signals (λex=340 nm/380 nm, λem=510-520 nm) was initiated at 1 minute prior to the addition of capsaicin solution or acidic buffer and continued for 5 minute.

[1] = Half-life in Human Liver Microsomes (HLM); conditions: pH 7.4; for half-life at 1 μM: human, human liver microsomes (HL101)

T1 sequence (Q8NER1 whole entry): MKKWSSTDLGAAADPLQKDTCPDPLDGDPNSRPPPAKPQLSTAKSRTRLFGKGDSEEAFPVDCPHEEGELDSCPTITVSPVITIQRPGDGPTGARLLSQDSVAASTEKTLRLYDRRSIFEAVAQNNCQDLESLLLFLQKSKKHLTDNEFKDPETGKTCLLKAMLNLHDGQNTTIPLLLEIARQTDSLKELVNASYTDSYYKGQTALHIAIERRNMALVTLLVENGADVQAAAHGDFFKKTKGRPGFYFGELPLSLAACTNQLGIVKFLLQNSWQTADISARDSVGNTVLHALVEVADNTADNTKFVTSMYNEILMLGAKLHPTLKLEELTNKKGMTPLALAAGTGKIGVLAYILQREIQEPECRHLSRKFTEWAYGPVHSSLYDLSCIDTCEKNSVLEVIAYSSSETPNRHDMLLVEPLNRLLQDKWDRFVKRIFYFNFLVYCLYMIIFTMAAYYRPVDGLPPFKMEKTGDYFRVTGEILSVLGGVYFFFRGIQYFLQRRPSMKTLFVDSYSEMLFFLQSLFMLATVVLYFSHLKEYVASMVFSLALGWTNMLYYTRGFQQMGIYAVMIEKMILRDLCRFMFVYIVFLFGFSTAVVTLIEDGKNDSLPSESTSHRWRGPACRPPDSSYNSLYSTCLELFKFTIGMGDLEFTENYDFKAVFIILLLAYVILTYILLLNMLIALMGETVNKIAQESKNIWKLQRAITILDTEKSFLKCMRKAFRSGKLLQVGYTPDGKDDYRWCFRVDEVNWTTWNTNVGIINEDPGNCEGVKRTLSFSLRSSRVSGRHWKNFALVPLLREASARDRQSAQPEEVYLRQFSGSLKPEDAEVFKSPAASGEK

SMILES | IC50 (human VR1 receptors) [nM] | half-life at 1 μM [1] [min] | T1/2 ([1]; 1 μM compound, 0.78 mg/mL HLM, 37° C., NADPH) [min]
Cc1cc([C@@H](C)NC(=O)[C@H]2C[C@@H]2c2cc(F)c(C(C)(C)C)c(F)c2)ccc1NS(C)(=O)=O [Example 39, 2-(4-tert-Butyl-3,5-difluorophenyl)-N-((1R)-1-{3-methyl-4-[(methylsulfonyl)amino]phenyl}ethyl)cyclopropanecarboxamide] | 9.12 | 15 | –
Cc1cc(CNC(=O)C2CC2c2ccc(C(C)(C)C(F)(F)F)cc2)ccc1NS(C)(=O)=O (centres unmarked) [Example 6, N-{3-Methyl-4-[(methylsulfonyl)amino]benzyl}-2-[4-(2,2,2-trifluoro-1,1-dimethylethyl)phenyl]cyclopropanecarboxamide] | 18.3 | 18 | –
CC[C@@H](NC(=O)[C@H]1C[C@@H]1c1cc(F)c(C(C)(C)C)c(F)c1)c1ccc(NS(C)(=O)=O)c(C)c1 [Example 76, 2-(4-tert-Butyl-3,5-difluorophenyl)-N-((1R)-1-{3-methyl-4-[(methylsulfonyl)amino]phenyl}propyl)cyclopropanecarboxamide] | 26.3 | 33 | –
C[C@@H](NC(=O)[C@@H]1C[C@@]1(C)c1ccc(C(F)(F)F)c(F)c1)c1cc(F)c(NS(C)(=O)=O)c(F)c1 [Example 74, N-((1R)-1-{3,5-Difluoro-4-[(methylsulfonyl)amino]phenyl}ethyl)-2-[3-fluoro-4-(trifluoromethyl)phenyl]-2-methylcyclopropanecarboxamide] | 21 | > 120 | –
Oc1cc2c(cc1O)CN(C(=S)NCCc1ccc(Cl)cc1)CCC2 [Capsazepine, reference compound] | 237 to 455 | – | –
Cc1cc([C@@H](C)NC(=O)C2CC2(C)c2cc(F)c(C(C)(C)C)c(F)c2)c(F)cc1NS(C)(=O)=O (stereo partly drawn) [Example 78, 2-(4-tert-Butyl-3,5-difluorophenyl)-N-((1R)-1-{2-fluoro-5-methyl-4-[(methylsulfonyl)amino]phenyl}ethyl)-2-methylcyclopropanecarboxamide] | < 3 | – | –
COCC(C)(C)c1ccc(C2(C)CC2C(=O)N[C@H](C)c2ccc(NS(C)(=O)=O)c(C)c2)cc1F (stereo partly drawn) [Example 85, 2-{4-[1,1-Dimethyl-2-(methyloxy)ethyl]-3-fluorophenyl}-2-methyl-N-((1R)-1-{3-methyl-4-[(methylsulfonyl)amino]phenyl}ethyl)cyclopropanecarboxamide] | 52.7 | – | –
CC[C@@H](NC(=O)[C@H]1C[C@]1(C)c1cc(F)c(C(C)(C)C)c(F)c1)c1ccc(NS(C)(=O)=O)cc1 [Example 90, 2-(4-tert-Butyl-3,5-difluorophenyl)-2-methyl-N-((1R)-1-{4-[(methylsulfonyl)amino]phenyl}propyl)cyclopropanecarboxamide] | 86.3 | – | –
C[C@@H](NC(=O)[C@H]1C[C@@H]1c1ccc(C(C)(C)C)c(F)c1)c1ccc(NS(C)(=O)=O)c(CO)c1 [Example 36, 2-[4-tert-Butyl-3-fluorophenyl]-N-((1R)-1-{3-(hydroxymethyl)-4-[(methylsulfonyl)amino]phenyl}ethyl)cyclopropanecarboxamide] | 19 | – | –
Cc1cc([C@@H](C)NC(=O)C2CC2(C)c2ccc(C(C)(C)O)cc2)ccc1NS(C)(=O)=O (stereo partly drawn) [Example 3, 2-[4-(1-Hydroxy-1-methylethyl)phenyl]-2-methyl-N-((1R)-1-{3-methyl-4-[(methylsulfonyl)amino]phenyl}ethyl)cyclopropanecarboxamide] | 885 | – | –
C[C@@H](NC(=O)C1CC1c1ccc(C(C)(C)C)nc1)c1ccc(NS(C)(=O)=O)c(F)c1 (stereo partly drawn) [Example 52, 2-[6-tert-Butylpyridin-3-yl]-N-((1R)-1-{3-fluoro-4-[(methylsulfonyl)amino]phenyl}ethyl)cyclopropanecarboxamide] | 1150 | – | –
Cc1cc([C@@H](C)NC(=O)C2CC2(C)c2ccc(C(C)(C)C)nc2)ccc1NS(C)(=O)=O (stereo partly drawn) [Example 11, 2-(6-tert-Butylpyridin-3-yl)-2-methyl-N-((1R)-1-{3-methyl-4-[(methylsulfonyl)amino]phenyl}ethyl)cyclopropanecarboxamide monohydrochloride] | – | – | 22
Cc1cc([C@@H](C)NC(=O)C2CC2c2ccc(C(C)(C)C)cc2-c2ccncc2)ccc1NS(C)(=O)=O (stereo partly drawn) [Example 65, 2-[4-tert-Butyl-2-pyridin-4-ylphenyl]-N-((1R)-1-{3-methyl-4-[(methylsulfonyl)amino]phenyl}ethyl)cyclopropanecarboxamide] | 1040 | – | –
CCc1nc([C@@H](C)NC(=O)[C@H]2C[C@]2(C)c2ccc(C(C)(C)C(F)(F)F)cc2)ccc1NS(C)(=O)=O [Example 35, N-((1R)-1-{6-Ethyl-5-[(methylsulfonyl)amino]pyridin-2-yl}ethyl)-2-methyl-2-[4-(2,2,2-trifluoro-1,1-dimethylethyl)phenyl]cyclopropanecarboxamide] | 156 | – | –
CC[C@@H](NC(=O)[C@H]1C[C@]1(C)c1cc(F)c(C(C)(C)C)c(F)c1)c1ccc(NS(C)(=O)=O)c(C)c1 [Example 91, 2-(4-tert-butyl-3,5-difluorophenyl)-2-methyl-N-((1R)-1-{3-methyl-4-[(methylsulfonyl)amino]phenyl}propyl)cyclopropanecarboxamide] | < 3 | – | –
C[C@@H](NC(=O)C1C[C@@H]1c1ccc(C(C)(C)C)c(F)c1)c1ccc(NS(C)(=O)=O)c(CO)c1 (stereo partly drawn) [Example 36, 2-[4-tert-Butyl-3-fluorophenyl]-N-((1R)-1-{3-(hydroxymethyl)-4-[(methylsulfonyl)amino]phenyl}ethyl)cyclopropanecarboxamide] | – | 23 | –

The next lines start with the values.

IC50 (human VR1 receptors) [nM] | half-life at 1 μM [1] [min] | T1/2 ([1]; 1 μM compound, 0.78 mg/mL HLM, 37° C., NADPH) [min] | SMILES
17.9 | 19 | – | CCc1cc([C@@H](C)NC(=O)C2CC2(C)c2ccc(OC(F)(F)F)cc2)ccc1NS(C)(=O)=O (mixture of isomers) [Example 29, N-((1R)-1-{3-Ethyl-4-[(methylsulfonyl)amino]phenyl}ethyl)-2-methyl-2-{4-[(trifluoromethyl)oxy]phenyl}cyclopropanecarboxamide]
56.2 | 39 | – | CCc1cc([C@@H](C)NC(=O)[C@H]2C[C@@H]2c2ccc(C(F)(F)F)cc2)ccc1NS(C)(=O)=O [Example 33, N-((1R)-1-{3-Ethyl-4-[(methylsulfonyl)amino]phenyl}ethyl)-2-[4-(trifluoromethyl)phenyl]cyclopropanecarboxamide]
19.9 | – | – | CCc1cc([C@@H](CC)NC(=O)[C@H]2C[C@]2(C)c2ccc(C(F)(F)F)cc2)ccc1NS(C)(=O)=O [Example 87, (1S,2S)-N-((1R)-1-{3-ethyl-4-[(methylsulfonyl)amino]phenyl}propyl)-2-methyl-2-[4-(trifluoromethyl)phenyl]cyclopropanecarboxamide]
4.8 | – | – | C[C@@H](NC(=O)[C@H]1C[C@]1(C)c1ccc(C(F)(F)F)cc1)c1ccc(NS(C)(=O)=O)c(CCO)c1 [Example 86, (1S,2S)-N-((1R)-1-{3-(2-Hydroxyethyl)-4-[(methylsulfonyl)amino]phenyl}ethyl)-2-methyl-2-[4-(trifluoromethyl)phenyl]cyclopropanecarboxamide]
< 3 | – | – | CCC1(c2ccc(C(F)(F)F)cc2)CC1C(=O)N[C@H](C)c1ccc(NS(C)(=O)=O)c(F)c1 (stereo partly drawn) [Example 89, 2-Ethyl-N-((1R)-1-{3-fluoro-4-[(methylsulfonyl)amino]phenyl}ethyl)-2-[4-(trifluoromethyl)phenyl]cyclopropanecarboxamide]
< 3 | – | – | CCC1(c2ccc(C(F)(F)F)cc2)CC1C(=O)N[C@H](C)c1ccc(NS(C)(=O)=O)c(C)c1 (stereo partly drawn) [Example 88, 2-Ethyl-N-((1R)-1-{3-methyl-4-[(methylsulfonyl)amino]phenyl}ethyl)-2-[4-(trifluoromethyl)phenyl]cyclopropanecarboxamide]
– | 25 | – | CCc1nc([C@@H](C)NC(=O)C2C[C@]2(C)c2ccc(C(C)(C)C(F)(F)F)cc2)ccc1NS(C)(=O)=O (stereo partly drawn) [Example 35, N-((1R)-1-{6-Ethyl-5-[(methylsulfonyl)amino]pyridin-2-yl}ethyl)-2-methyl-2-[4-(2,2,2-trifluoro-1,1-dimethylethyl)phenyl]cyclopropanecarboxamide]

From patent US7915448B2, “Substituted sulfonylaminoarylmethyl cyclopropanecarboxamide as VR1 receptor antagonists” (Pfizer Inc., priority 2005, dated 2011)
